Each block holds one compound with its values, some of them ahead of it. Calls of active or inactive are those of the source. No cut-off for these calls is given here.
Key:
MT4 [1] = assay: Anti HIV-l activity in infected MT-4 cells cultures; NA is NO Activity; assay type: functional, cell-based; settings: Homo sapiens
MT4 [2] = assay: Activity in HIV-l infected MT-4 cells cultures; No activity; assay type: functional, cell-based; settings: Homo sapiens
[3] = molecular target: Human immunodeficiency virus type 1 reverse transcriptase (Human immunodeficiency virus 1) (UniProt Q72547); assay: In vitro effective dose for the inhibition of human immunodeficiency virus (HIV) reverse transcriptase in MT-4 and peripheral lymphocyte (PBL) cell cultures; NI is No Inhibition up to a concentration of 100 uM; assay type: functional
[4] = molecular target: Human immunodeficiency virus type 1 reverse transcriptase (Human immunodeficiency virus 1) (UniProt Q72547); assay: Tested for percent inhibition of the human immunodeficiency virus (HIV) reverse transcriptase in MT-4; assay type: functional
MT4 [5] = assay: Anti HIV-l activity in infected MT-4 cells cultures; assay type: functional; settings: Homo sapiens, read-out: ED50 (the source's name)

SMILES: Nc1nc(O)c2ncn(C/C=C\COCP(=O)(O)O)c2n1
- ED50 (MT4 [1]): inactive

SMILES: Nc1ncnc2c1ncn2C/C=C\CO
- ED50 (MT4 [2]): inactive

SMILES: Cc1cn(C/C=C\COCP(=O)(O)O)c(=O)[nH]c1=O
- ED50 (MT4 [1]): inactive

- ED50 [3]: No inhibition
SMILES: Nc1ncnc2c1ncn2C/C=C\CCOP(=O)(O)OP(=O)(O)OP(=O)(O)O

- ED50 [4]: 50 µM
SMILES: Nc1ccn(C/C=C\COCP(=O)(O)OP(=O)(O)OP(=O)(O)O)c(=O)n1

SMILES: Nc1ncnc2c1ncn2C/C=C\COCP(=O)(O)O
- EC50 (MT4 [5]): 9 µM

SMILES: Nc1ccn(C/C=C\COCP(=O)(O)O)c(=O)n1
- ED50 (MT4 [1]): inactive

Source: ChEMBL document CHEMBL1127390, “Novel acyclic nucleotides and nucleoside 5'-triphosphates imitating 2',3'-dideoxy-2',3'-didehydronucleotides: synthesis and biological properties” (1994)
